Experimental data reported in the NIST ThermoML archive (doi:10.1021/acs.jced.5b00412).

Assay: wn = mass fraction of the nth substance listed
Conditions: 101.3 kPa, Liquid, Vibrating tube method

NCCCO [3-amino-1-propanol] + O
mass density [kg/m3]
Conditions	w1 = 0.1	w1 = 0.2	w1 = 0.3	w1 = 0.41	w1 = 0.51	w1 = 0.61	w1 = 0.7	w1 = 0.8	w1 = 0.91	w1 = 1
293.15 K	998.7	1002.2	1005.9	1008.8	1011.3	1015.4	1014.9	1009.8	1001.4	987.5
298.15 K	997.3	1000.4	1003.7	1006	1008.2	1011.8	1011.2	1005.9	997.5	983.6
303.15 K	995.7	998.4	1001.3	1003.1	1005	1008	1007.3	1002	993.5	979.6
308.15 K	993.9	996.3	998.8	1000.1	1001.8	1003.9	1003.4	998	989.5	975.5
313.15 K	991.9	994	996.2	997.1	998.5	1001	999.2	994	985.5	971.5
318.15 K	989.7	991.6	993.3	993.9	995	997.2	995.6	990	981.5	967.5
323.15 K	987.3	989	990.6	990.6	991.5	993.3	991.7	986	977.5	963.4
328.15 K	984.8	986.3	987.6	987.9	988	989.5	987.8	981.9	973.4	959.3
333.15 K	983	983.5	984.5	984.5	984.4	985.6	983.9	977.7	969.3	955.8
338.15 K	980.3	980.5	981.3	981.9	980.8	981.6	979.9	973.2	965.2	951.7
343.15 K	977.5	977.5	978	978.3	977.5	977.6	975.8	969.1	961	947.6
348.15 K	974.5	974.3	974.6	974.7	972.9	973.6	971.6	965.1	956.9	943.5
353.15 K	971.2	971	971.1	971.1	970.8	969.5	967.4	961.2	952.7	939.3
